{"source": "patent US20250099485A1", "about": "“COMPOSITIONS FOR PROMOTING HAIR GROWTH” (ESTETRA SRL, priority 2021, published 2025)", "molecules": {"B1": {"name": "PDGF-BB: positive control at 10 ng/ml for human fibroblasts (protein, UniProt P01127 82-190, looked up)", "Platelet-derived growth …": "SLGSLTIAEPAMIAECKTRTEVFEISRRLIDRTNANFLVWPPCVEVQRCSGCCNNRNVQCRPTQVQLRPVQVRKIEIVRKKPIFKKATVTLEDHLACKCETVAAARPVT"}}, "key": {"[1]": {"tested_on": "mouse lymphoma cell line L5178Y TK^+/−", "experiment": "Generation of reactive oxygen species (ROS)", "type": "cell-based", "details": "up to 100 μM, 3 h exposure, vs vehicle control", "description": "The objective of the study was to investigate the generation of reactive oxygen species (ROS) induced by the test item, estetrol (E4), in a mouse lymphoma cell line L5178Y TK^+/−.\nL5178Y TK^+/− cells in logarithmic phase of growth were plated in black 96 well cell culture plates at 1×10^4 cells in 90 μL of cell culture media. Controls and test item in triplicate were applied to the cells as a 10× concentrate in 10 μL of a 10% ethanol solution in PBS (final concentration of ethanol on plate was 1%). Cells were incubated for 3 hours at 37° C., 5% CO2, and the generation of ROS was evaluated by fluorescence with a ROS reagent: the ROS reagent was freshly prepared by dissolving one ampoule of reagent (50 μg) in 70 μL DMSO and further diluting this with 2.1 mL of pre-warmed PBS. 10 μL of ROS reagent was added to each well and the plate were shaken for 30 seconds in the dark. The plates were incubated approximately at 37° C., 5% CO2 for 1 h 30 min and fluorescence was read on a plate scanner with excitation at 492 nm and emission at 520 nm."}, "[2]": {"experiment": "Tissue distribution of radioactivity by quantitative whole body autoradiography, non-pigmented rats", "type": "in vivo, rat (female Sprague-Dawley)", "details": "female non-pigmented rats; for Concentration of radioactivity in tissue, Skin: Non-pigmented / Tissue: Blood ratio, Skin: Non-pigmented: single oral 15 mg/kg", "description": "Times for analysis were: 0.5, 1, 2, 5, 8, 24 and 48 hours.\nDistribution of radioactivity in tissues was determined and quantified using the Fuji FLA-5100 fluorescent image analyser and associated Tina and SeeScan software. Tissue concentrations of radioactivity were determined using calibrated autoradiographic microscales produced by GE Healthcare. A standard curve was produced using the microscales from which tissue concentrations of radioactivity were determined (nCi/g). These values were then converted into pg equivalents/g using the specific activity of the dose formulation.\nRadioactivity concentrations are also reported as μg equivalents/g."}, "[3]": {"experiment": "Tissue distribution of radioactivity by quantitative whole body autoradiography, partially pigmented rats", "details": "female partially pigmented rats; for Concentration of radioactivity in tissue, Skin: Non-pigmented / Concentration of radioactivity in tissue, Skin: Pigmented / Tissue: Blood ratio, Skin: Non-pigmented / Tissue: Blood ratio, Skin: Pigmented / Total amount of radioactivity in tissue, Skin (non-pigmented) / Total amount of radioactivity in tissue, Skin (pigmented): single oral 15 mg/kg", "protocol": "Tissue distribution was determined in female rats (partially pigmented and non-pigmented) using [^14C]-estetrol.\nA group of six female Lister Hooded rats each received a single oral dose of [^14C]-estetrol. At each selected time (see below) one animal was killed (by overdose of CO2) followed by immediate snap freezing in hexane/solid CO2. The carcasses were retained for examination of the tissue distribution of radioactivity using the technique of quantitative whole body autoradiography (QWBA).\nTimes for analysis were: (0.5, 8, and 24 hours, 7, 14 and 35 days).\nFrozen carcasses were subjected to whole-body autoradiography.\nWhere concentrations are reported, radioactivity was assumed to be associated with [^14C]-estetrol or any metabolic products derived from [^14C]-estetrol. The specific activities of the dosed test compounds were used for the calculation of concentrations in all cases. Recoveries of radioactivity are reported as percentage of administered radioactivity (% dose). Radioactivity concentrations are also reported as μg equivalents/g."}, "[4]": {"tested_on": "Normal Human Dermal Fibroblasts (NHDFs)", "experiment": "Colonization of acellular area (IBIDI gap closure), fibroblasts", "type": "cell-based", "details": "10 ng/ml, both in presence and absence of MMC", "description": "The study consists in an in vitro assay aiming to evaluate the properties of E4 and E2 at 4 concentrations each on keratinocytes and fibroblasts. In this assay, the measurement of the colonization of a standard acellular surface generated from a confluent monolayer of cells using a dedicated culture device (IBIDI chamber) is performed. The assay is performed in absence and in presence of a proliferation inhibitor to focus on cell proliferation and migration or on migration only, respectively.\nNormal Human foreskin-derived Dermal Fibroblast (NHDFs, ATCC) cells were grown in phenol-free Dulbecco's Modified Eagle Medium (DMEM, ThermoFisher Scientific) supplemented with 10% of Foetal Bovine Serum (FBS, ThermoFisher Scientific), L-glutamine and antibiotics. The cells were maintained in a humidified incubator at 37° C. with a 5% CO2 atmosphere.\nCells were plated in 2-well silicone inserts with a defined cell free gap (IBIDI chambers; IBIDI GmbH, 80209) that was previously inserted on 12-well culture plates. This culture device allows to create a standardized 500 μm±100 μm cell free gap for monitoring cell colonization. 24 h after seeding, when the culture reached high confluency, cells in the insert were treated, or not, with mitomycin C (MMC) at 10 μg/ml during 2 h. After these 2 hours, the insert was removed, and cells were treated with E2 or E4 in presence or not of MMC for additional 2 h. Then, if appropriate, the culture medium was removed and cells were treated with E2 or E4 for 22 h, in absence of MMC.\nFor the assay, keratinocytes were plated in Epilife medium without HKGS and all the treatments were performed in this medium. Fibroblasts were plated in DMEM medium containing only 2.5% of FBS and the treatments were performed in absence of FBS.\nE2 and E4 were applied at 4 concentrations each (10^−7M, 10^−8M, 10^−9M, 10^−10M). In parallel, cells were treated with a positive control (HKGS 1% for human keratinocytes and PDGF-BB at 10 ng/ml for human fibroblasts).\nTo monitor cell colonization and to evaluate the gap closure rate, pictures of the gap were taken after different times: at time 0 h, corresponding to the beginning of the treatment with E2 or E4 and to the removal of the culture insert, at time 6 h and at time 24 h (corresponding to the end of the treatments with E2 or E4). Pictures were taken with a microscope Zeiss (Axiover 25-10× objective) and with a camera Invenio2EIII (DeltaPix—Lux-Optic). The colonized areas were quantified from the pictures by the use of the WimAsis platform—WimScratch software. For each insert, 3 pictures were taken at each time. As each condition was performed in triplicates, it means a total of 9 pictures per condition and per time point of acquisition"}}}
{"molecule": "OO", "note": "[hydrogen peroxide, reference compound]", "values": [{"measurement": "levels of ROS, positive control", "setting": "[1]", "result": "tendency to increase the levels of ROS"}]}
{"molecule": "[^14C]-estetrol", "values": [{"measurement": "Concentration of radioactivity in tissue, Skin: Non-pigmented", "setting": "[2]; 0.5 hours", "result": "2.59 microgram equivalents/gram"}, {"measurement": "Tissue: Blood ratio, Skin: Non-pigmented", "setting": "[2]; 0.5 hours", "result": 1.05}, {"measurement": "Concentration of radioactivity in tissue, Skin: Non-pigmented", "setting": "[2]; 1 hour", "result": "0.771 microgram equivalents/gram"}, {"measurement": "Tissue: Blood ratio, Skin: Non-pigmented", "setting": "[2]; 1 hour", "result": 0.99}, {"measurement": "Concentration of radioactivity in tissue, Skin: Non-pigmented", "setting": "[2]; 2 hours", "result": "0.465 microgram equivalents/gram"}, {"measurement": "Tissue: Blood ratio, Skin: Non-pigmented", "setting": "[2]; 2 hours", "result": 1.72}, {"measurement": "Concentration of radioactivity in tissue, Skin: Non-pigmented", "setting": "[2]; 5 hours", "result": "0.189 microgram equivalents/gram"}, {"measurement": "Tissue: Blood ratio, Skin: Non-pigmented", "setting": "[2]; 5 hours", "result": 1.66}, {"measurement": "Concentration of radioactivity in tissue, Skin: Non-pigmented", "setting": "[2]; 8 hours", "result": "0.361 microgram equivalents/gram"}, {"measurement": "Tissue: Blood ratio, Skin: Non-pigmented", "setting": "[2]; 8 hours", "result": 1.77}, {"measurement": "Concentration of radioactivity in tissue, Skin: Non-pigmented", "setting": "[2]; 24 hours", "result": "BLQ"}, {"measurement": "Concentration of radioactivity in tissue, Skin: Non-pigmented", "setting": "[2]; 48 hours", "result": "BLQ"}, {"measurement": "Concentration of radioactivity in the liver (greatest concentration)", "setting": "[2]; single oral dose, 0.5 hours", "result": 12.5, "unit": "μg equivalents/g"}, {"measurement": "Concentration of radioactivity in tissue, Skin: Non-pigmented", "setting": "[3]; 0.5 hours", "result": "1.89 microgram equivalents/gram"}, {"measurement": "Concentration of radioactivity in tissue, Skin: Pigmented", "setting": "[3]; 0.5 hours", "result": "2.85 microgram equivalents/gram"}, {"measurement": "Tissue: Blood ratio, Skin: Non-pigmented", "setting": "[3]; 0.5 hours", "result": 0.71}, {"measurement": "Tissue: Blood ratio, Skin: Pigmented", "setting": "[3]; 0.5 hours", "result": 1.07}, {"measurement": "Total amount of radioactivity in tissue, Skin (non-pigmented)", "setting": "[3]; 0.5 hours", "result": "1.136 % dose administered/tissue"}, {"measurement": "Total amount of radioactivity in tissue, Skin (pigmented)", "setting": "[3]; 0.5 hours", "result": "1.714 % dose administered/tissue"}, {"measurement": "Concentration of radioactivity in tissue, Skin: Non-pigmented", "setting": "[3]; 8 hours", "result": "0.090 microgram equivalents/gram"}, {"measurement": "Concentration of radioactivity in tissue, Skin: Pigmented", "setting": "[3]; 8 hours", "result": "0.163 microgram equivalents/gram"}, {"measurement": "Tissue: Blood ratio, Skin: Non-pigmented", "setting": "[3]; 8 hours", "result": 0.66}, {"measurement": "Tissue: Blood ratio, Skin: Pigmented", "setting": "[3]; 8 hours", "result": 1.03}, {"measurement": "Total amount of radioactivity in tissue, Skin (non-pigmented)", "setting": "[3]; 8 hours", "result": "0.059 % dose administered/tissue"}, {"measurement": "Total amount of radioactivity in tissue, Skin (pigmented)", "setting": "[3]; 8 hours", "result": "0.099 % dose administered/tissue"}, {"measurement": "Concentration of radioactivity in tissue, Skin: Non-pigmented", "setting": "[3]; 24 hours", "result": "BLQ"}, {"measurement": "Concentration of radioactivity in tissue, Skin: Pigmented", "setting": "[3]; 24 hours", "result": "0.113 microgram equivalents/gram"}, {"measurement": "Total amount of radioactivity in tissue, Skin (non-pigmented)", "setting": "[3]; 24 hours", "result": "<0.041 % dose administered/tissue"}, {"measurement": "Total amount of radioactivity in tissue, Skin (pigmented)", "setting": "[3]; 24 hours", "result": "0.061 % dose administered/tissue"}, {"measurement": "Concentration of radioactivity in tissue, Skin: Non-pigmented", "setting": "[3]; 7 days", "result": "BLQ"}, {"measurement": "Concentration of radioactivity in tissue, Skin: Pigmented", "setting": "[3]; 7 days", "result": "BLQ"}, {"measurement": "Total amount of radioactivity in tissue, Skin (non-pigmented)", "setting": "[3]; 7 days", "result": "<0.043 % dose administered/tissue"}, {"measurement": "Total amount of radioactivity in tissue, Skin (pigmented)", "setting": "[3]; 7 days", "result": "<0.043 % dose administered/tissue"}, {"measurement": "Concentration of radioactivity in tissue, Skin: Non-pigmented", "setting": "[3]; 14 days", "result": "BLQ"}, {"measurement": "Concentration of radioactivity in tissue, Skin: Pigmented", "setting": "[3]; 14 days", "result": "BLQ"}, {"measurement": "Total amount of radioactivity in tissue, Skin (non-pigmented)", "setting": "[3]; 14 days", "result": "<0.038 % dose administered/tissue"}, {"measurement": "Total amount of radioactivity in tissue, Skin (pigmented)", "setting": "[3]; 14 days", "result": "<0.038 % dose administered/tissue"}, {"measurement": "Concentration of radioactivity in tissue, Skin: Non-pigmented", "setting": "[3]; 35 days", "result": "BLQ"}, {"measurement": "Concentration of radioactivity in tissue, Skin: Pigmented", "setting": "[3]; 35 days", "result": "BLQ"}, {"measurement": "Total amount of radioactivity in tissue, Skin (non-pigmented)", "setting": "[3]; 35 days", "result": "<0.041 % dose administered/tissue"}, {"measurement": "Total amount of radioactivity in tissue, Skin (pigmented)", "setting": "[3]; 35 days", "result": "<0.041 % dose administered/tissue"}, {"measurement": "Concentration of radioactivity in the liver (greatest concentration)", "setting": "[3]; single oral dose, 0.5 hours", "result": 13.7, "unit": "μg equivalents/g"}, {"measurement": "Concentration of radioactivity in the liver", "setting": "[3]; single oral dose, 7 days after dosing", "result": 0.410, "unit": "μg equivalents/g"}, {"measurement": "Concentration of radioactivity, majority of tissues (BLQ)", "setting": "[3]; single oral dose, by 24 hours", "result": "< 0.076", "unit": "μg equivalents/g"}]}
{"molecule": "B1", "values": [{"measurement": "NHDF colonized area, positive reference", "setting": "[4]", "result": "significantly increases the colonized area"}]}
